The record followed here is the Kinase Knowledgebase extract (Sharma et al. 2016).

Assay [1] has as its target PIK3CA (human) (UniProt P42336). As to the kind of experiment: Enzyme Assay.
Assay [2] has as its target ROCK2 (human) (UniProt O75116). As to the kind of experiment: Inhibition of ROCK2 Kinase Activity.
Assay [3] concerns the target PIK3CD (Human) (UniProt O00329). Nature of the assay: Enzyme Assay.
For assay [4], the target named is PIK3CG (human) (UniProt P48736). Nature of the assay: Inhibition of PIK3CG Kinase Activity.
Assay [5] has as its target PIK3CA (human) (UniProt P42336). As to the kind of experiment: Inhibition of PIK3CA Kinase Activity.

A word on the Kd: it is the free concentration of one partner at which half of the binding sites on the other are occupied at equilibrium, for simple one-to-one binding. The low end stands for higher affinity, the high end for lower affinity. The Ki is the equilibrium dissociation constant of an inhibitor or competing ligand from its target. Low values mean higher affinity, high ones lower affinity. In general, IC50 refers to the point on the concentration scale where inhibition reaches its midpoint. A lower IC50 goes with inhibition by little substance. As usually defined, the inhibition is the drop in the measured response relative to a control, in per cent. A high value points to strong suppression.

Chain of PIK3CD (Human) (O00329 whole entry, looked up): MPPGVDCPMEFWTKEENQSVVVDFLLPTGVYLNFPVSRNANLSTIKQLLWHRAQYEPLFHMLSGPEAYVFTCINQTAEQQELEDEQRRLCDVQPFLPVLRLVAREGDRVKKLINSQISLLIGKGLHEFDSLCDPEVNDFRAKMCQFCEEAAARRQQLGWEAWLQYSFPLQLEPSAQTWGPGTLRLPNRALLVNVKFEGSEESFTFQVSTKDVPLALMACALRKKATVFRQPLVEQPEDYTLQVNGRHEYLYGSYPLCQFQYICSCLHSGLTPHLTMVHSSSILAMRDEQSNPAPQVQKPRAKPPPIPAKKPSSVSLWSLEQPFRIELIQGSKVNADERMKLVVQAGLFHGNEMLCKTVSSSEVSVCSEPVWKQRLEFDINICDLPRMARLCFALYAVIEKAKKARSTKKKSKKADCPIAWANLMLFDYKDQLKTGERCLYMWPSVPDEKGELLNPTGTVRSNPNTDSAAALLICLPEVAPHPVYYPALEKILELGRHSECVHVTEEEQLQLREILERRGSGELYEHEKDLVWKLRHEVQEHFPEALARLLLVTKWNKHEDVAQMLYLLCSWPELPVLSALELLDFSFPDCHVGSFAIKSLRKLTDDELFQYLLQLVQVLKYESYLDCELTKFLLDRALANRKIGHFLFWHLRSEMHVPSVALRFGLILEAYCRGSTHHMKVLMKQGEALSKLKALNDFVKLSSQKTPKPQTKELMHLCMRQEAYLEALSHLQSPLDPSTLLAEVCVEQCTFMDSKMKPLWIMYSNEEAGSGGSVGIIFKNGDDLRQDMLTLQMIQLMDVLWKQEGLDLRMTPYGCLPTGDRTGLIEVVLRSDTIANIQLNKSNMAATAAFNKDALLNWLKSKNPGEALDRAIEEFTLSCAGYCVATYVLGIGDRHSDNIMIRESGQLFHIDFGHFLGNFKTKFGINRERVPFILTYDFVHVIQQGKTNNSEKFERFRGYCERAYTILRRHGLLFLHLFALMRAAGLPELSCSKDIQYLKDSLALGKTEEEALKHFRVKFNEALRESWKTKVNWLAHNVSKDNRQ
Chain of PIK3CA (human) (P42336 whole entry, looked up): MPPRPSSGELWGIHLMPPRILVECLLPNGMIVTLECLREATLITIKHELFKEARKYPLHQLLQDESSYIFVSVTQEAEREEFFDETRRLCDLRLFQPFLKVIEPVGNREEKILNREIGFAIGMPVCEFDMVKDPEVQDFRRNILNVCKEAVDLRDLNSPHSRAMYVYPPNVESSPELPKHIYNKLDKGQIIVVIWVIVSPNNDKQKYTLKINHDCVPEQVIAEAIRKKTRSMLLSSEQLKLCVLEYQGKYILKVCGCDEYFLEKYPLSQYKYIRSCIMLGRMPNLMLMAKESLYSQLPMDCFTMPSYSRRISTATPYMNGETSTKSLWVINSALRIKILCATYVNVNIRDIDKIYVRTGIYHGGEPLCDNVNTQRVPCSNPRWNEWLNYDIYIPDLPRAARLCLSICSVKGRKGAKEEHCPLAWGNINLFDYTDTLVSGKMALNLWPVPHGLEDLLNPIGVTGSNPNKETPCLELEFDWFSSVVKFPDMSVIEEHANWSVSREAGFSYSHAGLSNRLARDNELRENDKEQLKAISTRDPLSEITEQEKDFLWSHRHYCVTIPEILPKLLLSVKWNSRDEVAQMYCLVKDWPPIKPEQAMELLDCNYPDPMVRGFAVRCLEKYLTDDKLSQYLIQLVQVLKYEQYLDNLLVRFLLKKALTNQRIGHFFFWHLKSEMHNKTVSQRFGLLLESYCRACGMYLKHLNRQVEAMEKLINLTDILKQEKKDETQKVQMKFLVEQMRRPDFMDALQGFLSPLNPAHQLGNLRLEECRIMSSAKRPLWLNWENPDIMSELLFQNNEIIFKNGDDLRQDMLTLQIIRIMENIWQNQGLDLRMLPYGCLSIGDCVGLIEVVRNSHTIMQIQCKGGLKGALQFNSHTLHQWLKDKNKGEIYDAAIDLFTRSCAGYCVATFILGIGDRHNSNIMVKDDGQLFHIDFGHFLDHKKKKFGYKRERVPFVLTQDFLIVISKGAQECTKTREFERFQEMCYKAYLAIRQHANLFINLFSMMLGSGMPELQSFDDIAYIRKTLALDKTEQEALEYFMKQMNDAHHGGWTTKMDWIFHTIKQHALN
Chain of ROCK2 (human) (O75116 whole entry, looked up): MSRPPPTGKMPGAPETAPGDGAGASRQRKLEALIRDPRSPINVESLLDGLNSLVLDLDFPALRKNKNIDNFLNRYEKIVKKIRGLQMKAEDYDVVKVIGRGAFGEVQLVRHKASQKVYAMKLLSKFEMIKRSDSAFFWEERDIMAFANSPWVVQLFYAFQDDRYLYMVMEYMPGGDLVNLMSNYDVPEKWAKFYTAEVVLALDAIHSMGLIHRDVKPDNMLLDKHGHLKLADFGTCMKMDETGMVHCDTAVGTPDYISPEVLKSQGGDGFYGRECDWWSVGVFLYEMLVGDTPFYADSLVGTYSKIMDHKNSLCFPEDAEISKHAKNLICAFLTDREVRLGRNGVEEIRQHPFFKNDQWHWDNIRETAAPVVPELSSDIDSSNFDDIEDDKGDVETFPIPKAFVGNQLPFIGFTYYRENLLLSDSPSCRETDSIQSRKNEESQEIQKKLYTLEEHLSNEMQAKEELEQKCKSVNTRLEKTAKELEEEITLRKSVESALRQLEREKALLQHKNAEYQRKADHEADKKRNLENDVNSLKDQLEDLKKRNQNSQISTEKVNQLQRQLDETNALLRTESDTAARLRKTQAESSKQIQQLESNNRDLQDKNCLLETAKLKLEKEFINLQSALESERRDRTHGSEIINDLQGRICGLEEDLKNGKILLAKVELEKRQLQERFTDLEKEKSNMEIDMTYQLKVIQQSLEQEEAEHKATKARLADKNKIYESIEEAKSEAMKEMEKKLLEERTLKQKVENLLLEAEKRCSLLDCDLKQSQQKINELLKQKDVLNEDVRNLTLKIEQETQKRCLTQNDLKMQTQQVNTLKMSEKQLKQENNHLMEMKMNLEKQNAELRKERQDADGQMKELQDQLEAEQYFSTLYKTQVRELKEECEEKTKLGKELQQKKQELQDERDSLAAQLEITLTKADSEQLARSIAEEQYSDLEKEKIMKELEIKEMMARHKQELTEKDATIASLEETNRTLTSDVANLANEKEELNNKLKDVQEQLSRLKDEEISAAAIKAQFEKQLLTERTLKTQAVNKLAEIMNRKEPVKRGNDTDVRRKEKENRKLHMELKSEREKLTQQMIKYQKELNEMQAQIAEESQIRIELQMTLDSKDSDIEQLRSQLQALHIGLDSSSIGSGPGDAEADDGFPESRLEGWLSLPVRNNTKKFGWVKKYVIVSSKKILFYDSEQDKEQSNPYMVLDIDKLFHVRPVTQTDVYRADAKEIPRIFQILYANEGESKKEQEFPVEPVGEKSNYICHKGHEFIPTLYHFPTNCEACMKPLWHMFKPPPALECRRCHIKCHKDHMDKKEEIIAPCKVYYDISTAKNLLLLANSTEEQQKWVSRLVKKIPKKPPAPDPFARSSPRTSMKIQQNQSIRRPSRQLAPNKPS
Chain of PIK3CG (human) (P48736 whole entry, looked up): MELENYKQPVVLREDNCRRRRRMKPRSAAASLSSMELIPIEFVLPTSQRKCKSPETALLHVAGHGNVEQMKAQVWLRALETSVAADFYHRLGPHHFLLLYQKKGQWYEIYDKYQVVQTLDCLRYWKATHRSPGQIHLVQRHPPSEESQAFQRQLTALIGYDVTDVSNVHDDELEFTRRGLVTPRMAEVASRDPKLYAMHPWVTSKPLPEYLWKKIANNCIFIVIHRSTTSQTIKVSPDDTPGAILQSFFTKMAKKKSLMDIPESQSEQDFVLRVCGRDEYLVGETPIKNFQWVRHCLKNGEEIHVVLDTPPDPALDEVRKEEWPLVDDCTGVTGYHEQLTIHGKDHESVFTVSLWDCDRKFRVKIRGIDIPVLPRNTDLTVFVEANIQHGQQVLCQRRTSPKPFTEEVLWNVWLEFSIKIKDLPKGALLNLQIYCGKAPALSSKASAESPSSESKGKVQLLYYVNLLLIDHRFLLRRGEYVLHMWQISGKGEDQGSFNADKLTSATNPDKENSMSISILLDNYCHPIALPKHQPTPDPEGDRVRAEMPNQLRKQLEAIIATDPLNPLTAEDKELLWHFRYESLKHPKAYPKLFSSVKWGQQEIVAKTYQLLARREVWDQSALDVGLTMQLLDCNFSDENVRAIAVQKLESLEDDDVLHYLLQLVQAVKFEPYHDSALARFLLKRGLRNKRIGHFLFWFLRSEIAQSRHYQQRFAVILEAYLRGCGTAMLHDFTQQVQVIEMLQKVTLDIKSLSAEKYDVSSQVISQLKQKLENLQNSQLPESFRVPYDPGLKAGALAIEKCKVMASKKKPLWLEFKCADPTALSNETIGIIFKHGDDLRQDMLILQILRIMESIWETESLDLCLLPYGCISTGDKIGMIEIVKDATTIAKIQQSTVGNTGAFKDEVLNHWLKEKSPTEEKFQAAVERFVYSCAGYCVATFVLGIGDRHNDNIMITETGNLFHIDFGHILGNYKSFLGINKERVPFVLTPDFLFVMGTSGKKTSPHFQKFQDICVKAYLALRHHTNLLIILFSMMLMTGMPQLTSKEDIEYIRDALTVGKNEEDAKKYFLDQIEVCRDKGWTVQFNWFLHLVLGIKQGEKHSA

In the case of `COc1cc(-c2cncc(NS(=O)(=O)c3ccccc3)c2)cn2c(-c3noc(C)n3)cnc12`, in assay [1], the Kd is 1230 nM. This counts as single-digit micromolar.
Compound `c1cc2ccc(CN3CCC[C@@H](Nc4ccc5[nH]ncc5c4)C3)cc2[nH]1` gave a Ki in assay [2] of 6.3 nM.
Consider `CNCC(=O)N1CCCN(S(=O)(=O)c2cccc3cncc(F)c23)[C@@H](C)C1`, for which the IC50 in assay [2] came to 29 nM.
As for `Cc1nc(-c2cnc3c(C)cc(-c4cncc(NS(=O)(=O)c5ccccc5)c4)cn23)no1`, in assay [1], the Kd was found to be 47 nM.
In turn, `CS(=O)(=O)N1CC2CCC(C1)N2c1cn2cc(-c3cnc(N)nc3)nc(N3CCOCC3)c2n1` showed an IC50 in assay [1] of 108 nM.
`CCN1CC(C)(C)Oc2nc(N3CC4CCC(C3)O4)nc(-c3ccc(NC(=O)Nc4ccn(C)n4)cc3)c2C1=O`: in assay [1], the IC50 was determined as 4200 nM.
Consider `Cc1n[nH]c2cc(-c3nn(Cc4oc5ccccc5c(=O)c4-c4cccc(F)c4)c4ncnc(N)c34)ccc12`, for which the IC50 in assay [3] was less than 250 nM.
Regarding `NCC1(c2ccc(Cl)cc2)CCN(c2ncnc3[nH]ccc23)CC1`, the IC50 in assay [2] was less than 100 nM.
`CN1CCCN(c2nc(-c3ccncc3)cnc2N)CC1`: the IC50 in assay [2] is 3100 nM. This counts as single-digit micromolar.
`C=CC(=O)N1CCC[C@@H](n2nc(-c3ccc(Oc4ccccc4)cc3)c3c(N)ncnc32)C1` displayed an IC50 in assay [1] greater than 10000 nM.
As to `CC(C)Oc1ccc(-c2nn(C(C)c3oc4ccccc4c(=O)c3-c3cccc(F)c3)c3ncnc(N)c23)cc1Cl` (stereo not drawn), in assay [3], the IC50 is less than 250 nM.
Compound `CC[C@H](Nc1ncnc(N)c1-c1nc(C)no1)c1cc2cccc(C)c2c(=O)n1-c1ccccc1` gave an IC50 in assay [3] of 11 nM.
With `Nc1nc(Nc2cc(F)c(Sc3ccncc3)c(Cl)c2)cc(N2C[C@H]3CCCN[C@H]3C2)n1`, the IC50 in assay [2] worked out at 6 nM.
In the case of `Cc1nnc(-c2c(N)ncnc2NC(C)c2cc3cccc(Cl)c3nc2-c2ccccn2)o1` (stereo not drawn), the IC50 in assay [3] was determined as 81 nM.
`C[C@H]1CN(C(=O)CN)CCCN1S(=O)(=O)c1cccc2cncc(F)c12`: in assay [2], the IC50 worked out at 32.1 nM.
Compound `O=C(NCc1ccc(F)cc1)Nc1nc(-c2ccncc2)cs1` showed an IC50 in assay [2] of 19 nM. This IC50 is about 1.7-fold lower than that of the compound before.
The compound `Nc1nccc2cc(CNCCc3ccccc3)ccc12` had an IC50 in assay [2] of 3160 nM.
For `Nc1ncnc2c1c(-c1cc3cccc(O)c3[nH]1)nn2C1CCOCC1`, the IC50 in assay [3] was 100 to 500 nM.
In turn, `CCN1CC(C)(C)Oc2nc(N3CC4CCC(C3)O4)nc(-c3ccc(NC(=O)Nc4cnccn4)cc3)c2C1=O` came in with an IC50 in assay [1] greater than 10000 nM.
For the compound `COc1ncc(N2CCc3ncnc(N[C@H]4CCN(C(=O)[C@H]5CC[C@H](OC)CC5)C4)c3C2)cc1C(F)(F)F`, in assay [3], the IC50 was 4 nM.
In assay [1], `C[C@@H]1COC[C@@H](C)N1c1nc(Oc2ccc(C(=O)N(C)C)cc2)nc(-c2cnc(N)s2)n1` displayed an IC50 of 6000 nM.
As to `Cn1ncc2c(Nc3ccc(C(N)=O)cc3)nc(Nc3ccc(NC(=O)Nc4cccnc4)cc3)nc21`, the values for the half-maximal inhibitory concentration (IC50) in assay [4] and in assay [5] were 68 nM and 1 nM, respectively.
`CN(C)CCCNC(=O)c1cn2cc(-c3cccnc3)nc(N3CCOCC3)c2n1` returned an IC50 in assay [1] of 295 nM.
Consider `COCCN(C(=O)c1cccc(CNC(=O)c2ccc(OC)c(OC)c2)c1)c1ccc2c(c1)CNCC2`, for which the IC50 in assay [2] came out at 99 nM.
On to `Nc1nc(Nc2ccc(Sc3ccncc3)c(F)c2)cc(Oc2cccc(Cl)c2)n1`, for which the IC50 in assay [2] worked out at 70 nM. The IC50 values of the last two compounds are within 1.5-fold of each other.
Take `COc1cccc(-c2cn3c(I)c(C)nc3c(N3CCOCC3)n2)c1`: the IC50 in assay [1] lay within 100 to 1000 nM.
Take `COc1cccc(CN(CCN(C)C)C(=O)c2nc3ccc(-c4cn[nH]c4)cc3s2)c1`: in assay [2], the IC50 was less than 1 nM.
In assay [3], `Cc1c(-n2ccccc2=O)nc2cc(F)cc(F)c2c1N1CC2(CCOCC2)c2ncc(N3CCOCC3)cc21` registered a Ki of 4.64 nM.
Consider `CC(c1oc2ccccc2c(=O)c1-c1cccc(F)c1)n1nc(-c2ccc(O)cc2)c2c(N)ncnc21` (stereo not drawn), for which the IC50 in assay [3] was less than 250 nM.
Consider `CC1(C)CCN(C(=O)c2ccc(NC(=O)Nc3ccc(-c4nc(O[C@H]5CCOC5)nc(N5CCOCC5)n4)cc3)cc2)CC1`, for which, in assay [4], the IC50 was determined as 7.2 nM and the Kd came to 6.5 nM.
In turn, `COc1cc2sc(C(=O)Nc3nnn[nH]3)c(OCC3(C)COC3)c2cc1OC` gave an IC50 in assay [4] of 445 nM.
Take `Cc1nc(-c2cnc3c(Cl)cc(-c4cncc(NS(=O)(=O)c5ccccc5)c4)cn23)no1`: the Kd in assay [1] turned out to be 430 nM.
`COc1ccc(OC)c(Nc2nc3ncccc3nc2NS(=O)(=O)c2ccccc2)c1` registered an IC50 in assay [4] of 73 nM.
For the compound `O=C1NC(=O)/C(=C/c2ccc(-c3ccc4ccccc4n3)o2)S1`, the inhibition in assay [4] (concentration not given here) was 13%.
For the compound `COc1cc(Nc2nc3ccccc3nc2NS(=O)(=O)c2ccc(CN(C)C)cc2)cc(OC)c1`, in assay [4], the IC50 came to 27 nM. This lies in the double-digit nanomolar range.
In assay [4], `COc1cc(Nc2nc3ccccc3nc2NS(=O)(=O)c2cccc(C(=O)NCCCN(C)C)c2)cc(OC)c1` showed an IC50 of 30 nM.
Compound `CN1CCCN(c2nc(-c3ccc4cn[nH]c4c3)cnc2N)CC1` gave an IC50 in assay [2] greater than 100 nM.
Consider `CCn1c(C(=O)Nc2nnn[nH]2)c(-c2ccccc2)c2cc(OC)c(OC)cc21`, for which the IC50 in assay [4] stood at 6600 nM.
Still for that read-out and setting: for `COc1cc2c(O[C@@H]3CCC[C@@H](C)C3)c(C(=O)Nc3nn[nH]n3)sc2cc1C` the value was 24 nM.
`Nc1nc(Nc2ccc(Oc3ccc4cn[nH]c4c3)c(F)c2)cc(-c2ccncc2)n1` had an IC50 in assay [2] of 100 nM. This lies in the sub-micromolar range.
As to `Cc1cc(NCc2ccccc2)c2nc(N3CCOCC3)cc(=O)n2c1`, in assay [4], the IC50 is greater than 10000 nM.
